Measurements: article PMC11768370, “Etodolac Single Dose Metabolic Profile Elucidation: Pharmacokinetics and Adverse Events in Healthy Volunteers” (Pharmaceuticals, 2025)
Where “and” joins values, the source holds several entries; their conditions need not be identical. Identical values can stand only once. Like-named read-outs stand apart in the source and are kept apart here.

Assay: Etodolac pharmacokinetic profile after a single dose, plasma LC-MS/MS, non-compartmental
Format: in vivo, human
Experimental: The analytical method used to calculate the pharmacokinetic parameters was validated according to Resolution No. 27/2012 of the Agência Nacional de Vigilância Sanitária (ANVISA). In this study, an LC-MS/MS system was used to quantify ETO. Chromatographic separations were performed using an LC-20AD analytical pump (Shimadzu, Kyoto, Japan) and a SIL-20A HT autosampler (Shimadzu, Kyoto, Japan), coupled to a Quattro Micro (Micromass, Newcastle, UK) system for triple quadrupole mass spectrometry analyses with an electrospray ionization (ESI) source (Waters, Newcastle, UK). The targeted analysis for ETO was detected by a multiple reaction monitoring (MRM) transition of 286 > 242, and mefenamic acid (Internal Standard) was detected by an MRM transition of 240 > 196 in negative acquisition mode. Data were collected using MassLynx 4.1 (Waters, Newcastle, UK). Further information on the validation method can be found in Supplementary Materials and Methods. WinNonLin 8.3 software (Pharsight, New Jersey, USA) was used to calculate pharmacokinetic parameters using non-compartmental statistics. […]
Table S3. Pharmacokinetics parameters. Pharmacokinetics parameters were calculated for each participant using the concentration across time data. […]
1. Volunteers and Study Design
The present study was nested in a single-dose, open-label, randomized pharmaco-bioequivalence study performed under biosafety and ethical standards. The reference formulation was an etodolac controlled-release coated tablet of 500 mg Flancox® with the administration of one single-dose tablet.
The volunteers were hospitalized at 7:00 p.m. and had supper before 9:00 p.m. After an overnight fast, a speciﬁc high-calorie diet was administered 30 minutes before taking the medication. They received (at ∼7:00 a.m.) a tablet of 500 mg of etodolac with 200 mL of water. Lunch: 4 hours after taking the medication. Afternoon snack: 8 hours after taking the medication. Dinner: 10 hours after […]
At 2 h before and 6, 8, and 12 h after the dose administration, vital signs were checked. The […] period was 24 h, during which period, blood samples (5 mL) from a suitable antecubital vein were collected, post-dosing via an indwelling catheter, into ethylenediaminetetraacetic acid […]
for 10 min at 4°C, and the plasma was stored at -70°C until assayed. Samples were handled under yellow light due to the photosensitivity of the drug.
2. Determination of Pharmacokinetic Proﬁle by LC-MS/MS
Chromatographic separations were performed in an LC-20AD analytical pump and SIL-20A HT autosampler from Shimadzu. The stationary phase employed an Agilent Polaris 5 µm C18-A 50 x […]
2,0mm column (Phenomenex). The mobile phase consisted of a solution of acetonitrile and 5 mM ammonium acetate, ﬂowing at 0.3 mL/min in proportion (8:2). The autosampler was maintained at 22°C, with an injection volume of 5 µl and 2.5-minute duration. Mass spectrometry was conducted on a Quattro Micro mass spectrometer from Micromass, equipped with an electrospray ionization (ESI) source. While operating in negative ionization mode with nitrogen as the desolvation gas, ESI source parameters were set as follows: source temperature of 100°C, desolvation temperature of 450°C, desolvation ﬂow of 800 L h-1, and capillary voltage of 3,50 kV. Etodolac was detected by a multiple reaction monitoring (MRM) transition of 286 > 242 using a cone voltage of 30 eV, and mefenamic acid was detected by an MRM transition of 240 > 196 using a cone voltage of 30 eV. Data was acquired using MassLynx 4.1.
2.1. Preparation of Standards and Quality Controls
Etodolac stock solution (108.5 µg/mL) was prepared in methanol and diluted with H2O to obtain the corrected stock solution (100 µg/mL) for the spiking calibration curve and quality controls (QC) samples. QC samples were prepared in the following levels: low, 0,6 µg/mL (LQC); medium, 50 µg/mL (MQC); high, 75 ug/mL (HQC); and a dilution, 42.5 µg/mL (DQC), calculated by taking the […]

[1] = Maximum of 37 participants, single dose 500 mg
[2] = Minimum of 37 participants, single dose 500 mg
[3] = individual participants P1-P37, single dose 500 mg

**Q.** Which AUC0-t [1] does the source give for `CCc1cccc2c3c([nH]c12)C(CC)(CC(=O)O)OCC3` (stereo not shown) [Etodolac] here?
**A.** Its AUC0-t is 480.52 µg·h/mL.

**Q.** And the Cmax [1]?
**A.** The Cmax was 59070 ng/mL.

**Q.** What about the Kel [1] of the same compound?
**A.** Its Kel is 0.15 h⁻¹.

**Q.** What about the T1/2 [1] of the same compound?
**A.** Its T1/2 is 20.09 h.

**Q.** What about the Tmax [1] of the same compound?
**A.** Its Tmax is 5.00 h.

**Q.** And the AUC0-t [2]?
**A.** The AUC0-t was 94.14 µg·h/mL.

**Q.** What about the Cmax [2] of the same compound?
**A.** The Cmax was 18690 ng/mL.

**Q.** And the Kel [2]?
**A.** Its Kel is 0.035 h⁻¹.

**Q.** What about the T1/2 [2] of the same compound?
**A.** Its T1/2 is 4.76 h.

**Q.** And the Tmax [2]?
**A.** Its Tmax is 0.75 h.

**Q.** What about the AUC0-t (both sexes, human, oral, 500 mg, Mean of 37 participants, single dose 500 mg, read-out: AUC0-t) of the same compound?
**A.** The AUC0-t was 203 µg·h/mL.

**Q.** What about the Cmax (both sexes, human, oral, 500 mg, Mean of 37 participants, single dose 500 mg, read-out: Cmax) of the same compound?
**A.** The Cmax was 35500 ng/mL.

**Q.** What about the k el (both sexes, human, oral, 500 mg, Mean of 37 participants, single dose 500 mg, read-out: Kel (converted)) of the same compound?
**A.** The k el was 2.5e-05 s⁻¹.

**Q.** What about the half-life (both sexes, human, oral, 500 mg, Mean of 37 participants, single dose 500 mg, read-out: T1/2 (converted)) of the same compound?
**A.** The half-life was 8.2 h.

**Q.** What about the Tmax (both sexes, human, oral, 500 mg, Mean of 37 participants, single dose 500 mg, read-out: Tmax) of the same compound?
**A.** The Tmax was 2.24 h.

**Q.** And the k el (both sexes, human, oral, 500 mg, overall mean (SD), 37 healthy volunteers, single dose Flancox 500 mg tablet after high-calorie diet, read-out: elimination rate constant (Kel) (converted))?
**A.** The k el was 2.5e-05 s⁻¹.

**Q.** And the half-life (both sexes, human, oral, 500 mg, overall mean (SD), 37 healthy volunteers, single dose Flancox 500 mg tablet after high-calorie diet, read-out: half-life (T1/2) (converted))?
**A.** Its half-life is 8.2 h.

**Q.** And the Cmax (both sexes, human, oral, 500 mg, overall mean (SD), 37 healthy volunteers, single dose Flancox 500 mg tablet after high-calorie diet, read-out: maximum concentration (Cmax))?
**A.** Its Cmax is 35500 ng/mL.

**Q.** And the Tmax (both sexes, human, oral, 500 mg, overall mean (SD), 37 healthy volunteers, single dose Flancox 500 mg tablet after high-calorie diet, read-out: time to maximum concentration (Tmax))?
**A.** The Tmax was 2.24 h.

**Q.** And the AUC0-t (both sexes, human, oral, overall mean (SD), 37 healthy volunteers, single dose Flancox 500 mg tablet after high-calorie diet, read-out: area under the curve from time zero to time t (AUC0-t))?
**A.** Its AUC0-t is 203 µg·h/mL.

**Q.** And the Cmax [3]?
**A.** The Cmax was 45680 ng/mL.

**Q.** And the Tmax [3]?
**A.** Its Tmax is 2.25 h and 2.75 h and 1.50 h and 3.00 h and 1.25 h and 3.67 h and 4.00 h and 3.33 h and 2.50 h and 1.00 h and 2.00 h and 1.75 h and 5.00 h and 0.75 h.
